± gives the standard deviation of the averaged measurements.
Assays:
Assay in all cases: level (log10 ratio to DMSO vehicle control); higher = higher biomarker level / cell amount than vehicle control
[1] = compound: OCCC(F)(F)C(F)(F)C(F)(F)C(F)(F)C(F)(F)C(F)(F)C(F)(F)C(F)(F)F [8:2 Fluorotelomer alcohol]; conditions: 6700 nM; in DMSO
Description: (§1)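 BioMAP Diversity Plus panel of 12 human primary cell co-culture systems (3C, 4H, LPS, SAg, BT, BF4T, BE3C, CASM3C, HDF3CGF, KF3CT, MyoF, Mphg). Compounds were added 1 h before stimulation and left for 24 h (MyoF 48 h; BT 72 h for soluble read-outs or 6 d for IgG). Biomarkers were read by ELISA, cytotoxicity by SRB, PBMC viability and proliferation by Alamar Blue. Each well value was divided by the mean of 8 DMSO control wells on the same plate and log10 transformed; duplicate blinded samples were tested at 4 concentrations.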

[2] = compound: FC(F)(F)COC(OCC(F)(F)F)OCC(F)(F)F [tris(Trifluoroethoxy)methane]; conditions: in DMSO
Description: as §1

[3] = compound: O=C(CC(=O)C(F)(F)C(F)(F)C(F)(F)F)c1cccs1 [(Perfluorobutyryl)-2-thenoylmethane]; conditions: in DMSO
Description: as §1

[4] = compound: O=S(=O)(OCC(F)(F)F)C(F)(F)C(F)(F)C(F)(F)C(F)(F)F [2,2,2-Trifluoroethyl perfluorobutanesulfonate]; conditions: in DMSO
Description: as §1

[5] = compound: C=CC(=O)OCC(F)(F)C(F)(F)C(F)(F)C(F)(F)COC(=O)C=C [1H,1H,6H,6H-Perfluorohexane-1,6-diol diacrylate]; conditions: 6700 nM; in DMSO
Description: as §1

Perfluoropinacol = compound: OC(C(F)(F)F)(C(F)(F)F)C(O)(C(F)(F)F)C(F)(F)F [Perfluoropinacol]; conditions: in DMSO
Description: as §1

Tetrafluorosuccinic acid = compound: O=C(O)C(F)(F)C(F)(F)C(=O)O [Tetrafluorosuccinic acid]; conditions: in DMSO
Description: as §1

Methotrexate = compound: CN(Cc1cnc2nc(N)nc(N)c2n1)c1ccc(C(=O)N[C@@H](CCC(=O)O)C(=O)O)cc1 [Methotrexate]; conditions: in DMSO
Description: as §1

[6] = compound: FC(F)(I)C(F)(F)C(F)(F)C(F)(F)C(F)(F)C(F)(F)I [1,6-Diiodoperfluorohexane]; conditions: 6700 nM; in DMSO
Description: as §1

Test System | level (log10) [1] | level (log10) ([2]; 6700 nM) | level (log10) ([2]; 20000 nM) | level (log10) ([2]; 60000 nM) | level (log10) ([3]; 6700 nM) | level (log10) ([3]; 20000 nM) | level (log10) ([4]; 6700 nM) | level (log10) ([4]; 20000 nM) | level (log10) ([4]; 60000 nM) | level (log10) [5] | level (log10) (Perfluoropinacol; 6700 nM) | level (log10) (Perfluoropinacol; 20000 nM) | level (log10) (Tetrafluorosuccinic acid; 6700 nM) | level (log10) (Tetrafluorosuccinic acid; 20000 nM) | level (log10) (Tetrafluorosuccinic acid; 60000 nM) | level (log10) (Methotrexate; 1500 nM) | level (log10) (Methotrexate; 4400 nM) | level (log10) (Methotrexate; 13000 nM) | level (log10) (Methotrexate; 40000 nM) | level (log10) [6]
LPS:sPGE2 | -0.11 ± 0.033 | -0.0105 ± 0.022 | -0.0085 ± 0.0035 | 0.0185 ± 0.013 | -0.066 ± 0.052 | 0.0635 ± 0.0064 | 0.049 ± 0.02 | -0.006 ± 0.038 | -0.024 ± 0.018 | -0.0195 ± 0.0064 | 0.086 ± 0.038 | 0.182 ± 0.015 | 0.0125 ± 0.032 | -0.002 ± 0.047 | 0.054 ± 0.031 | 0.011 ± 0.025 | -0.0045 ± 0.057 | -0.0135 ± 0.067 | -0.0235 ± 0.021 | -0.063
LPS:sTNF-alpha | 0.0175 ± 0.03 | -0.009 ± 0.017 | 0.001 | 0.0105 ± 0.011 | 0.0225 ± 0.036 | 0.119 ± 0.029 | -0.0075 ± 0.043 | -0.0745 ± 0.076 | -0.225 ± 0.018 | 0.0235 ± 0.029 | -0.0005 ± 0.025 | 0.008 ± 0.03 | -0.0025 ± 0.018 | 0.0025 ± 0.011 | 0.009 ± 0.011 | 0.0165 ± 0.033 | 0 ± 0.079 | -0.045 ± 0.024 | -0.0525 ± 0.069 | -0.007
SAg:CCL2/MCP-1 | 0.0025 ± 0.0035 | -0.0215 ± 0.0035 | -0.0215 ± 0.0064 | 0.0105 ± 0.022 | -0.06 ± 0.0042 | -0.146 ± 0.0014 | 0.0045 ± 0.0064 | 0.0045 ± 0.019 | 0.0405 ± 0.033 | -0.0875 ± 0.04 | 0.078 ± 0.018 | -0.096 ± 0.0085 | -0.006 ± 0.02 | -0.0095 ± 0.0035 | -0.0085 ± 0.0064 | -0.0055 ± 0.12 | -0.037 ± 0.028 | -0.009 ± 0.024 | -0.0075 ± 0.05 | 0.001
SAg:CD38 | -0.004 | -0.0135 ± 0.015 | -0.011 ± 0.0057 | -0.012 ± 0.02 | -0.08 ± 0.055 | -0.223 ± 0.035 | -0.0185 ± 0.0092 | -0.012 ± 0.0071 | -0.0475 ± 0.032 | -0.0305 ± 0.0078 | -0.012 ± 0.021 | -0.113 ± 0.023 | -0.003 ± 0.027 | 0.001 ± 0.0028 | 0.006 ± 0.027 | 0.037 ± 0.0099 | -0.0175 ± 0.005 | 0.031 ± 0.0085 | 0.006 ± 0.028 | -0.008
SAg:CD40 | 0 ± 0.0042 | 0.0005 ± 0.026 | -0.0185 ± 0.011 | -0.0245 ± 0.0064 | -0.27 ± 0.11 | -0.412 ± 0.093 | -0.0165 ± 0.018 | -0.019 ± 0.017 | -0.0635 ± 0.049 | -0.0895 ± 0.023 | -0.021 ± 0.016 | -0.146 ± 0.013 | 0 ± 0.023 | 0.001 ± 0.0014 | -0.018 ± 0.0071 | -0.02 ± 0.0042 | -0.0525 ± 0.018 | -0.0055 ± 0.079 | -0.0305 ± 0.088 | -0.018
SAg:CD62E/E-Selectin | -0.012 | 0.004 ± 0.034 | -0.022 ± 0.025 | -0.0045 ± 0.026 | -0.164 ± 0.0092 | -0.113 ± 0.02 | -0.0065 ± 0.015 | 0.006 ± 0.018 | 0.03 ± 0.013 | -0.15 ± 0.021 | 0.008 ± 0.0071 | -0.15 ± 0.0021 | -0.015 | -0.003 ± 0.016 | 0.0035 ± 0.0035 | 0.007 ± 0.011 | -0.0015 ± 0.032 | 0.019 ± 0.016 | -0.0075 ± 0.018 | 0
SAg:CD69 | -0.018 ± 0.018 | 0.022 ± 0.0042 | 0.0105 ± 0.011 | 0.0215 ± 0.0035 | -0.128 ± 0.02 | -0.166 ± 0.0085 | -0.0025 ± 0.0092 | -0.0175 ± 0.025 | -0.049 ± 0.042 | -0.0645 ± 0.029 | -0.039 ± 0.017 | -0.19 ± 0.033 | 0.012 ± 0.061 | 0.0055 ± 0.025 | 0.023 ± 0.02 | -0.001 ± 0.0085 | -0.033 ± 0.024 | -0.0185 ± 0.061 | -0.003 ± 0.04 | -0.026
SAg:CXCL8/IL-8 | -0.0115 ± 0.047 | 0.002 ± 0.023 | 0.0085 ± 0.0021 | 0.0135 ± 0.00071 | -0.169 ± 0.058 | -0.177 ± 0.0085 | 0.0205 ± 0.029 | 0.034 ± 0.024 | 0.134 ± 0.086 | -0.102 ± 0.011 | 0.0725 ± 0.029 | -0.139 ± 0.041 | -0.0345 ± 0.039 | -0.044 ± 0.021 | -0.006 ± 0.064 | 0.023 ± 0.037 | -0.0215 ± 0.022 | -0.004 ± 0.02 | 0.0195 ± 0.052 | -0.012
SAg:CXCL9/MIG | -0.006 ± 0.0014 | 0.0015 ± 0.018 | 0.011 ± 0.0042 | 0.014 ± 0.0028 | -0.0075 ± 0.0035 | -0.0245 ± 0.011 | 0.0035 ± 0.015 | -0.004 ± 0.0014 | 0 ± 0.013 | -0.009 ± 0.018 | -0.002 ± 0.0028 | -0.005 ± 0.0014 | -0.006 ± 0.0014 | 0.003 | 0.013 ± 0.0099 | 0.0095 ± 0.0035 | 0 ± 0.035 | 0.006 ± 0.034 | -0.003 ± 0.027 | -0.008
SAg:PBMC Cytotoxicity | -0.0295 ± 0.012 | -0.0115 ± 0.0078 | 0.01 ± 0.017 | 0.0135 ± 0.022 | -0.0295 ± 0.019 | -0.058 ± 0.03 | 0.0065 ± 0.011 | -0.013 | 0.012 ± 0.0057 | -0.066 ± 0.038 | 0.046 ± 0.033 | 0.0855 ± 0.0021 | -0.002 ± 0.048 | 0.0115 ± 0.013 | 0.039 ± 0.013 | -0.001 ± 0.017 | 0.0015 ± 0.023 | 0.011 ± 0.018 | 0.0005 ± 0.0035 | 0.026
SAg:Proliferation | -0.064 ± 0.028 | -0.012 ± 0.0014 | 0.013 ± 0.04 | 0.007 ± 0.013 | -0.298 ± 0.019 | -0.585 | -0.0055 ± 0.032 | -0.053 ± 0.023 | -0.048 ± 0.018 | -0.296 ± 0.063 | 0.0035 ± 0.093 | -0.163 ± 0.021 | 0.017 ± 0.04 | -0.0205 ± 0.032 | 0.049 ± 0.027 | -0.085 ± 0.011 | -0.199 ± 0.044 | -0.253 ± 0.016 | -0.263 ± 0.023 | -0.028
SAg:SRB | -0.0185 ± 0.00071 | -0.0155 ± 0.005 | -0.0135 ± 0.0021 | -0.013 ± 0.017 | -0.012 ± 0.013 | -0.0845 ± 0.0021 | 0.0025 ± 0.013 | -0.0045 ± 0.0021 | -0.005 | -0.0115 ± 0.005 | -0.0285 ± 0.0078 | -0.123 ± 0.0021 | -0.016 ± 0.023 | -0.015 ± 0.011 | -0.0225 ± 0.015 | -0.002 ± 0.0042 | -0.007 ± 0.0014 | 0.003 ± 0.0071 | -0.0015 ± 0.0021 | 0.011
